Test results reported in patent EP2385948B1, “FUSED THIAZOLO AND OXAZOLO PYRIMIDINONES” (Torrent Pharmaceuticals Limited, priority 2009, dated 2011).
Counter-ions that a name gives are not always drawn.

Tests used:
[1] = test system: 5/6 nephrectomized (5/6 NX) rats; assay: Anemia associated with chronic kidney disease, 5/6 nephrectomized rat model; assay type: in vivo; details: for fold increase in reticulocyte production index: compared to control group
Method: The efficacy of the test compound to correct anemia associated with CKD was studied in an animal model of anemia - 5/6 nephrectomized (5/6 NX) rats^15,16,17. Animals were randomized based upon anemia and kidney dysfunction parameters and divided into two groups. One group received compound-10 (20mg/kg; b.i.d. i.p) for seven days while the control received respective vehicle. Blood sampling was done on day 3 and 7 post initiation of drug administration to check early markers of anemia correction.

adrenomedullin mRNA = assay: In vitro induction of adrenomedullin mRNA (real-time PCR, normalized to 18S rRNA); assay type: cell-based; details: Hep3B cell line, relative to vehicle control; for fold induction at 200 µM: Homo sapiens, Hep3B, 6 h
Method: Hep3B cell line (ATCC HB8064) was employed. […] At the end of 6 hours, cells were lysed and total RNA was isolated. Expression of adrenomedullin mRNA along-with expression of 18S rRNA was monitored by real-time PCR. Adrenomedullin mRNA expression was normalized relative to the expression of 18S rRNA. The results were expressed as fold induction of adrenomedullin mRNA relative to vehicle treated control.

VEGF = assay: In vitro induction of VEGF (ELISA of cell culture supernatant); assay type: cell-based; details: Homo sapiens, Hep3B cell line, 16 hours, relative to vehicle control
Method: Hep3B cell line (ATCC HB8064) was employed. […] Supernatant obtained was analyzed for VEGF by ELISA (R&D systems, USA). […]

erythropoietin = assay: In vitro erythropoietin induction (ELISA of cell culture supernatant); details: for fold induction at 200 µM: read-out: EPO fold induction, Hep3B cell line, 200 uM, 16 hours, relative to vehicle control
Method: Hep3B cell line (ATCC HB8064) was employed. Induction of erythropoietin was carried out for the indicated dose of compounds for 16 hours duration. At the end of 16 hours, cell culture medium was collected and centrifuged to remove any debris. Supernatant obtained was analyzed for erythropoietin by ELISA (R&D systems, USA). The results were expressed as fold induction as compared to vehicle control.

[2] = test system: renal ischemia and reperfusion induced acute kidney injury model in rats; assay: Renal ischemia and reperfusion induced acute kidney injury model; assay type: in vivo; details: 24hrs post initiation of ischemia, from control group
Method: The efficacy of test compound to improve renal function was evaluated in a renal ischemia and reperfusion induced acute kidney injury model in rats. The beneficial effect of the compound was evaluated using two different treatment protocols. In one protocol treatment with test compound was given before onset of ischemia (pre-treatment) and the other protocol involed treatment with test compound initiated after the onset of ischemia (post-treatment).
Pre-ischemia intervention protocol: Rats were randomised into two groups, compound treated and vehicle control. Before initiation of bilateral renal ischemia, the animals in compound treatment group received multiple doses of compound no. 10 (i.e. pre treated) and control group received vehicle by i.p route.
Post-ischemia intervention protocol: Rats were randomised into two groups, compound treated and vehicle control. After intiation of bilateral renal ischemia, the animals in compound treatment group received multiple doses of compound no. 10 (i.e. post treated) and control group received vehicle in similar fashion by i.p route.
Induction of Renal ischemia and reperfusion in rats: All animals were anesthetized with pentobarbital sodium (50 mg/kg body wt). Homeothermic blanket was used to maintain a constant body temperature of 37°C during surgery and ischemia. A midline incision was made at the ventral side to access the kidneys and both renal pedicle were isolated and occluded for 35 mins using microclips, which was verified by the change of the renal color. After an ischemic period of 35 min, the microclips were removed and reperfusion initiated. The abdomen was closed and skin & muscles sutured and animal allowed to recover. Blood sample of 300 µl was taken via sublingual vein puncture at various predetermined time points.
In both protocols tested i.e pre-ischemia intervention and post-ischemia intervention, renal function improvement was assessed by measuring serum creatinine and BUN (blood urea nitrogen) at various time points post ischemia. Results are expressed below as % reduction from their control group at 24hrs post initiation of ischemia.

[3] = day 7 of treatment, 5/6 NX rats, 20mg/kg b.i.d. i.p, compared to control
[4] = Post-ischemia intervention, i.p. 0.3mg/kg as 1st dose & 0.1mg/kg as subsequent dose
[5] = Pre-ischemia intervention, i.p. 10 mg/kg multiple dose

Compound | fold induction at 200 µM (adrenomedullin mRNA) | fold induction at 200 µM (VEGF) | fold induction at 200 µM (erythropoietin; Homo sapiens, Hep3B, 16 h) | further results
O=C(O)CNC(=O)c1c(O)nc2sc3c(n2c1=O)CCCCC3 [Compound 10, [(2-Hydroxy-4-oxo-6,7,8,9-tetrahydro-4H,5H-10-thia-1,4a-diaza-benzo[a]azulene-3-carbonyl)-amino] -acetic acid] | > 8 | 2 to 4 | > 16 | circulating EPO levels ([1]; 5/6 NX rats, 20mg/kg b.i.d. i.p for seven days, vehicle control undetectable (<45 pg/ml)): 115 to 3900 pg/mL; fold increase in reticulocyte production index ([1]; day 3, 5/6 NX rats, 20mg/kg b.i.d. i.p): 3 fold; fold increase in reticulocyte production index ([1]; day 7, 5/6 NX rats, 20mg/kg b.i.d. i.p): 5.6 fold; increase in erythrocyte count [1, 3]: 24%; increase in hematocrit percent [1, 3]: 25%; increase in hemoglobin content [1, 3]: 30%; % reduction BUN [2, 4]: 17.0%; % reduction Ser.Creatinine [2, 4]: 31.0%; % reduction BUN [2, 5]: 18.0%; % reduction Ser.Creatinine [2, 5]: 33.0%
O=C(O)CNC(=O)c1c(O)nc2sc3c(n2c1=O)CCN(Cc1ccc(Cl)cc1)C3 [Compound 23, {[7-(4-Chloro-benzyl)-2-hydroxy-4-oxo-5,6,7,8-tetrahydro-4H-9-thia-1,4a,7-triaza-fluorene-3-carbonyl]-amino}-acetic acid] | 2 to 4 | 2 to 4 | 9 to 16 | –
O=C(O)CNC(=O)c1c(O)nc2sc3c(n2c1=O)CCN(C(=O)CC1CC1)C3 [Compound 27, {[7-(2-Cyclopropyl-acetyl)-2-hydroxy-4-oxo-5,6,7,8-tetrahydro-4H-9-thia-1,4a,7-triaza-fluorene-3-carbonyl]-amino}-acetic acid] | > 8 | 2 to 4 | 9 to 16 | –
CC(NC(=O)c1c(O)nc2sc3c(n2c1=O)CCCCC3)C(=O)O (centres unmarked) [Compound 32, 2-[(2-Hydroxy-4-oxo-6,7,8,9-tetrahydro-4H,5H-10-thia-1,4a-diaza-benzo[a]azulene-3-carbonyl)-amino]-propionic acid] | 2 to 4 | 2 to 4 | 9 to 16 | –
CC1(C)CCc2c(sc3nc(O)c(C(=O)NCC(=O)O)c(=O)n23)C1 [Compound 34, [(2-Hydroxy-7,7-dimethyl-4-oxo-5,6,7,8-tetrahydro-4H-9-thia-1,4a-diaza-fluorene-3-carbonyl)-amino]-acetic acid] | 5 to 8 | 2 to 4 | > 16 | –
O=C(O)CNC(=O)c1c(O)nc2sc3c(n2c1=O)CCN(Cc1ccc(Cl)c(Cl)c1)C3 [Compound 49, {[7-(3,4-Dichloro-benzyl)-2-hydroxy-4-oxo-5,6,7,8-tetrahydro-4H-9-thia-1,4a,7-triaza-fluorene-3-carbonyl]-amino}-acetic acid] | 5 to 8 | – | 5 to 8 | –
O=C(O)CNC(=O)c1c(O)nc2sc3c(n2c1=O)CCN(Cc1ccc(C(F)(F)F)cc1)C3 [Compound 52, {[2-Hydroxy-4-oxo-7-(4-trifluoromethyl-benzyl)-5,6,7,8-tetrahydro-4H-9-thia-1,4a,7-triaza-fluorene-3-carbonyl]-amino}-acetic acid] | 5 to 8 | – | 5 to 8 | –
O=C(O)CNC(=O)c1c(O)nc2sc3c(n2c1=O)CCCCC3 [Compound 82, [(2-Hydroxy-4-oxo-6,7,8,9-tetrahydro-4H,5H-10-thia-1,4a-diaza-benzo[a]azulene-3-carbonyl)-amino]-acetic acid, Disodium salt] | – | – | – | Adrenomedullin mRNA (fold induction) (adrenomedullin mRNA; 200 uM, 6 hours, Disodium salt, 360 min): +++ (+++ indicates 5-8 fold); fold induction at 50 µM (erythropoietin; Homo sapiens, Hep3B, 16 h, read-out: EPO fold induction, Hep3B cell line, 50 uM, 16 hours, relative to vehicle control): 9 to 16
{[7-(3,5-Dimethoxy-benzoyl)-2-hydroxy-4-oxo-5,6,7,8-tetrahydro-4H-9-thia-1,4a,7-triaza-fluorene-3-carbonyl]-amino}-acetic acid [Compound 41] | – | – | – | EPO fold induction (erythropoietin; Hep3B cell line, 200 uM, 16 hours, relative to vehicle control): ++ (++ indicates 2-4 fold)
